Earlier results as cited in patent publication US20080248140A1, “COMPOSITION FOR SUPPORTING RESTFUL SLEEP” (priority 2007, published 2008).

Legend:
[1] = normal subjects (Mayer et al. 1996)
GABA(A) receptor = conditions: activity produced by muscimol; Yuan et al. 2004

| SMILES | quality of sleep and post-sleep restfulness [1] | neural activity in the brainstem (GABA(A) receptor) |
| --- | --- | --- |
| C/C1=C2/[N-][C@H]([C@H](CC(N)=O)[C@@]2(C)CCC(=O)NC[C@@H](C)OP(=O)([O-])O[C@H]2[C@@H](O)[C@@H](n3cnc4cc(C)c(C)cc43)O[C@@H]2CO)[C@]2(C)N=C(/C(C)=C3N=C(/C=C4N=C1[C@@H](CCC(N)=O)C\4(C)C)[C@@H](CCC(N)=O)[C@]\3(C)CC(N)=O)[C@@H](CCC(N)=O)[C@]2(C)CC(N)=O.[CH3-].[Co+3] [Methylcobalamin] | increases in the quality of sleep and feelings of post-sleep restfulness | – |
| CC1=C2[C@H](/C=C(\C)C(=O)O)CC[C@@H](C)[C@H]2CC1 [Valerinic acid] | – | decrease neural activity in the brainstem |
